Measured values as given in patent publication US20220112204A1, “SUBSTITUTED DIHYDROPYRANOPYRIMIDINE COMPOUNDS AS KRAS INHIBITORS” (ACCUTAR BIOTECHNOLOGY INC., priority 2020, published 2022).

Assays:
KRAS-G12C mutant [1] = biological target: T1, KRAS-G12C mutant (Homo sapiens, UniProt P01116, G12C); assay: Gel shift assay (SDS-PAGE) for covalent modification of KRAS G12C; type: binding; conditions: 0.5 μM compound, 1 μM GDP-bound KRAS G12C, 25° C., 5 minutes, shift indicative of covalent cysteine conjugation
Procedure: 0.5 μM compounds were incubated with 1 μM GDP-bound untagged KRAS (G12C or wild type) proteins at 25° C. for 5 minutes in 40 μl reaction buffer (50 mM Tris, pH 7.5, 100 mM NaCl, 1 mM MgCl2, 1 mM DTT). The reactions were quenched with 10 μI SDS-PAGE sample loading buffer (250 mM Tris-HCl, pH 6.8, 10% SDS, 0.5% bromophenol blue, 50% glycerol and 50 mM DTT) and then analyzed via SDS-PAGE using 4%-20% gradient polyacrylamide gel followed by Coomassie blue stain.
FIG. 1 illustrates mobility change of KRAS-G12C mutant or wild type proteins on SDS-PAGE after 5 minutes of coincubation at 25° C. with exemplary compounds of the present disclosure, indicative of covalent cysteine conjugation.
Table 3 summarizes molecular weight shift of KRAS-G12C mutant on SDS-PAGE after 5 mins of coincubation at 25° C. with exemplary compounds of the present disclosure, indicative of covalent cysteine conjugation.

KRAS-G12C mutant [2] = biological target: T1, KRAS-G12C mutant; assay: TR-FRET assay of SOS1-assisted KRAS GDP/GTP exchange; type: biochemical
Procedure: GDP form of 6*His tagged KRAS-G12C was diluted to 40 nM and incubated with 8 nM LanthaScreen™ Elite Terbium-anti-HIS Antibody (Thermo, catalog number PV5863) in reaction buffer containing 20 mM Tris, pH 7.5, 100 mM NaCl, 1 mM DTT, 0.1% Tween20, 0.05% BSA, 2% DMSO, 1 mM MgCl2. After 1 hour-incubation at 4° C., proteins were placed in 384 well plate (PerkinElmer, PROXIPLATE-384 PLUS). Then compounds with different concentrations were added to the proteins. BODIPY labeled GTP (Thermo, catalog number G12411) and SOS-1 (or reaction buffer as control) were then added to reactions at 200 nM and 1 μM to trigger the exchange of GDP to BODIPY-GTP. TR-FRET emission signals were determined at 520 nm and 620 nm on a Envision® Multilabel Plate Reader (PerkinElmer) using a 337 nm laser as light source. All data were analyzed and plotted using Graph Pad Prism software (version 8.0.1). Raw TR-FRET data were converted to percentage of inhibition (relative to DMSO) using the following equations: […]
b) For a given test compound concentration X:
Signal (X)=Emission ratio (SOS-1 & GTP)—Emission ratio (buffer & GTP)
c) Percentage of inhibition at concentration X=[1−Signal(X)/Signal (DMSO)]*100%
The […] values were determined by nonlinear regression of plots of [inhibitor] vs. percentage of inhibition with variable slope. Table 4 summarizes inhibition of SOS1-assisted GDP/GTP exchanging activity of KRAS-G12C mutant with exemplary compounds of the present disclosure.

[3] = system: phospho-ERK1/2 (Thr202/Tyr204) in MIA PaCa-2 cell line; assay: pERK and ERK Western blot analysis, MIA PaCa-2; type: cell-based; conditions: Homo sapiens; MIA PaCa-2 cell line, 4 hours after incubation; read-out: 2D pERK IC50
Procedure: MIA PaCa-2 (ATCC), NCI-H358 (ATCC), NCI-H23 (ATCC), SW837 and A549 (ATCC) cells were plated in 24-well plates at 2×10^5cells/well in RPMI growth medium containing 10% FBS and 1× Penicillin Streptomycin. They were then incubated at 37° C. overnight. The following day, the test compound was administered to the cells by using 1000× compound stock solution prepared in DMSO at various concentrations. After administration of the compound, the cells were then incubated at 37° C. for 4 hours. Upon completion, the cells were washed with PBS and protein was collected in Laemmli sample buffer (1×; VWR International). Proteins in cell lysate were separated by SDS-PAGE and transferred to Odyssey nitrocellulose membranes (Licor) with iblot® dry blotting transfer system (ThermoFisher). Nonspecific binding was blocked by incubating membranes with Intercept Blocking Buffer (Licor) for 1 hour at room temperature with gentle shaking. The membranes were then incubated overnight at 4° C. with primary antibodies rabbit anti-phospho p44/42 MAPK (Erk1/2) (1:2,000, Cell Signaling, 4370) and mouse anti-p44/42 MAPK (Erk1/2) (1:1,000, Cell Signaling, 4696) diluted in Intercept Blocking Buffer containing 0.1% Tween 20. After washing 3 times with TBS-T, the membranes were incubated with IRDye® 800CW goat anti-rabbit IgG (1:20,000, Licor) or IRDye® 680CW goat anti-mouse IgG (1:20,000, Licor) for 1 hour. After TBS-T washes, membranes were rinsed in TBS and scanned on Odyssey® CLx Imaging System (Licor). The bands were quantified using Image Studio™ Software (Licor).

MIA PaCa-2 cell line = assay: 3D cell growth assay (CellTiter-Glo), MIA PaCa-2; type: cell-based; conditions: Homo sapiens, MIA PaCa-2, 144 h, MIA PaCa-2 cell line, 6 days, 3D cell culture; read-out: 3D growth inhibition GI50
Procedure: MIA PaCa-2 (ATCC), NCI-H358 (ATCC), NCI-H23 (ATCC), SW837 and A549 (ATCC) cells were plated in round bottom 96-well spheroid microplates (Corning, 4520) at 3000 cells/well in 90 ul of RPMI growth medium containing 10% FBS and 1% Penicillin Streptomycin. Cells were incubated at 37° C. overnight. The following day, the test compound was administered to the cells by using 10× compound stock solution prepared in growth medium at various concentrations. After administration of the compound, cells were then incubated at 37° C. for 6 days. Before CellTiter-Glo assay, the plates were equilibrated at room temperature for approximately 10 minutes. 100 ul of CellTiter-Glo® Reagent (Promega, G7573) was added to each well. The plates were then incubated at room temperature for 10 minutes and luminescence was recorded by EnSpire plate reader (PerkinElmer). Table 6 illustrates growth inhibition (G150) by exemplary compounds 1-10 of the present disclosure in a MIA PaCa-2 cell line 6 days after administration in 3D cell culture. A: >0.1 nM and <1 nM; B: >=1 nM and <10 nM; C: >=10 nM and <100 nM; D: >100 nM.

| SMILES | KRAS-G12C molecular weight shift (KRAS-G12C mutant [1]) | IC50 (KRAS-G12C mutant [2]) | IC50 [3] | GI50 (MIA PaCa-2 cell line) |
| --- | --- | --- | --- | --- |
| C=C(F)C(=O)N1CCN(c2nc(OCC34CCCN3CCC4)nc3c2COC(c2cccc4cccc(C)c24)C3)C[C@@H]1CC#N (stereo partly drawn) [Compound 56, 2-((2S)-1-(2-fluoroacryloyl)-4-(7-(8-methylnaphthalen-1-yl)-2-((tetrahydro-1H-pyrrolizin-7a(5H)-yl)methoxy)-7,8-dihydro-5H-pyrano[4,3-d]pyrimidin-4-yl)piperazin-2-yl)acetonitrile] | Yes | 70 nM | 10 to 100 nM | 1 to 10 nM |
| C=CC(=O)N1CCN(c2nc(OC[C@@H]3C[C@@H](F)CN3C)nc3c2COC(c2cccc4ccccc24)C3)C[C@@H]1CC#N (stereo partly drawn) [Compound 8, 2-((2S)-1-acryloyl-4-(2-(((2S,4R)-4-fluoro-1-methylpyrrolidin-2-yl)methoxy)-7-(naphthalen-1-yl)-7,8-dihydro-5H-pyrano[4,3-d]pyrimidin-4-yl)piperazin-2-yl)acetonitrile] | – | 238 nM | 1 to 10 nM | 10 to 100 nM |
| C=CC(=O)N1CCN(c2nc(OC[C@@H]3CCCN3C)nc3c2CO[C@H](c2cccc4cccc(Cl)c24)C3)C[C@@H]1CC#N [Compound 7, 2-((S)-1-acryloyl-4-((S)-7-(8-chloronaphthalen-1-yl)-2-(((S)-1-methylpyrrolidin-2-yl)methoxy)-7,8-dihydro-5H-pyrano[4,3-d]pyrimidin-4-yl)piperazin-2-yl)acetonitrile] | – | 19 nM | 0.1 to 1 nM | 1 to 10 nM |
| C=C(F)C(=O)N1CCN(c2nc(OCC3(CN4CCCC4)CC3)nc3c2COC(c2cccc4cccc(Cl)c24)C3)C[C@@H]1CC#N (mixture of isomers) [Compound 71, 2-((2S)-4-(7-(8-chloronaphthalen-1-yl)-2-((1-(pyrrolidin-1-ylmethyl)cyclopropyl)methoxy)-7,8-dihydro-5H-pyrano[4,3-d]pyrimidin-4-yl)-1-(2-fluoroacryloyl)piperazin-2-yl)acetonitrile] | Yes | 209 nM | 10 to 100 nM | 10 to 100 nM |
| C=C(F)C(=O)N1CCN(c2nc(OC[C@@]34CCCN3C[C@H](F)C4)nc3c2COC(c2cccc4cccc(Cl)c24)C3)C[C@@H]1CC#N (stereo partly drawn) [Compound 62, 2-((2S)-4-(7-(8-chloronaphthalen-1-yl)-2-(((2R,7aS)-2-fluorotetrahydro-1H-pyrrolizin-7a(5H)-yl)methoxy)-7,8-dihydro-5H-pyrano[4,3-d]pyrimidin-4-yl)-1-(2-fluoroacryloyl)piperazin-2-yl)acetonitrile] | Yes | 40 nM | 1 to 10 nM | 0.1 to 1 nM |
| C=C(F)C(=O)N1CCN(c2nc(OCC34CCCN3CCC4)nc3c2[C@H](C)O[C@H](c2cccc4cccc(C)c24)C3)C[C@@H]1CC#N [Compound 66, 2-((S)-1-(2-fluoroacryloyl)-4-((5S,7S)-5-methyl-7-(8-methylnaphthalen-1-yl)-2-((tetrahydro-1H-pyrrolizin-7a(5H)-yl)methoxy)-7,8-dihydro-5H-pyrano[4,3-d]pyrimidin-4-yl)piperazin-2-yl)acetonitrile] | Yes | 30 nM | 10 to 100 nM | 1 to 10 nM |
| C=C(F)C(=O)N1CCN(c2nc(OC[C@@]34CCCN3C[C@H](F)C4)nc3c2CO[C@@H](c2cccc4cccc(Cl)c24)C3)C[C@@H]1CC#N (single isomer, unassigned) [Compound 63] | No | 6930 nM | > 100 nM | 10 to 100 nM |
| C=C(F)C(=O)N1CCN(c2nc(OCC34CCCN3CCC4)nc3c2COC(c2cccc4cccc(Cl)c24)C3)C[C@@H]1CC#N (stereo partly drawn) [Compound 53, 2-((2S)-4-(7-(8-chloronaphthalen-1-yl)-2-((tetrahydro-1H-pyrrolizin-7a(5H)-yl)methoxy)-7,8-dihydro-5H-pyrano[4,3-d]pyrimidin-4-yl)-1-(2-fluoroacryloyl)piperazin-2-yl)acetonitrile] | Yes | 45 nM | 1 to 10 nM | 1 to 10 nM |
| C=C(F)C(=O)N1CCN(c2nc(OCC34CCCN3CCC4)nc3c2CO[C@H](c2cccc4c2CCCC4)C3)C[C@@H]1CC#N [Compound 69, 2-((S)-1-(2-fluoroacryloyl)-4-((S)-2-((tetrahydro-1H-pyrrolizin-7a(5H)-yl)methoxy)-7-(5,6,7,8-tetrahydronaphthalen-1-yl)-7,8-dihydro-5H-pyrano[4,3-d]pyrimidin-4-yl)piperazin-2-yl)acetonitrile] | Yes | 20 nM | 10 to 100 nM | 1 to 10 nM |
| C=CC(=O)N1CCN(c2nc(OC[C@@H]3CCCN3C)nc3c2COC(c2cccc4ccccc24)C3)C[C@@H]1CC#N (stereo partly drawn) [Compound 2, 2-((2S)-1-acryloyl-4-(2-(((S)-1-methylpyrrolidin-2-yl)methoxy)-7-(naphthalen-1-yl)-7,8-dihydro-5H-pyrano[4,3-d]pyrimidin-4-yl)piperazin-2-yl)acetonitrile] | – | 77 nM | 10 to 100 nM | 1 to 10 nM |
| C=CC(=O)N1CCN(c2nc(OC[C@@H]3CCCN3C)nc3c2CO[C@H](c2cccc4ccccc24)C3)C[C@@H]1CC#N [Compound 4, 2-((S)-1-acryloyl-4-((S)-2-(((S)-1-methylpyrrolidin-2-yl)methoxy)-7-(naphthalen-1-yl)-7,8-dihydro-5H-pyrano[4,3-d]pyrimidin-4-yl)piperazin-2-yl)acetonitrile] | – | 49 nM | 1 to 10 nM | 1 to 10 nM |
| C=CC(=O)N1CCN(c2nc(OC[C@@H]3C[C@H](F)CN3C)nc3c2CO[C@H](c2cccc4ccccc24)C3)C[C@@H]1CC#N [Compound 9, 2-((S)-1-acryloyl-4-((S)-2-(((2S,4S)-4-fluoro-1-methylpyrrolidin-2-yl)methoxy)-7-(naphthalen-1-yl)-7,8-dihydro-5H-pyrano[4,3-d]pyrimidin-4-yl)piperazin-2-yl)acetonitrile] | – | 1 nM | 10 to 100 nM | 10 to 100 nM |
